Consider 11 compounds from ChEMBL document CHEMBL1201862, “PubChem BioAssay data set” (2004).

Assay [1] has as its target T1, RNA-binding protein pos-1 (Caenorhabditis elegans, UniProt G5EF15).
T1 sequence (G5EF15 whole entry): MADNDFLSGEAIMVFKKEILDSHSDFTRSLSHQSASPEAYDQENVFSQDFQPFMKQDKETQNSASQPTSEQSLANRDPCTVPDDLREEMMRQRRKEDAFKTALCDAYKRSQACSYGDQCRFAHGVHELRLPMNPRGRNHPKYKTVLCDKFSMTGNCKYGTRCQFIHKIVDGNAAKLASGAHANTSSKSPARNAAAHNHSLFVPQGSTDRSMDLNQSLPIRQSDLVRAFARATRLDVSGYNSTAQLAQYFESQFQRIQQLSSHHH
Briefly: disruptors of C. elegans POS-1 RNA interaction – biochemical, fluorescence polarization, dose response (AID 1964).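 Further: purified POS-1 fused to maltose binding protein made in E. coli; potency of compounds blocking POS-1 binding to fluorescent RNA.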

The target in assay [2] is T2, Zinc finger protein mex-5 (Caenorhabditis elegans, UniProt Q9XUB2).
T2 sequence (Q9XUB2 whole entry): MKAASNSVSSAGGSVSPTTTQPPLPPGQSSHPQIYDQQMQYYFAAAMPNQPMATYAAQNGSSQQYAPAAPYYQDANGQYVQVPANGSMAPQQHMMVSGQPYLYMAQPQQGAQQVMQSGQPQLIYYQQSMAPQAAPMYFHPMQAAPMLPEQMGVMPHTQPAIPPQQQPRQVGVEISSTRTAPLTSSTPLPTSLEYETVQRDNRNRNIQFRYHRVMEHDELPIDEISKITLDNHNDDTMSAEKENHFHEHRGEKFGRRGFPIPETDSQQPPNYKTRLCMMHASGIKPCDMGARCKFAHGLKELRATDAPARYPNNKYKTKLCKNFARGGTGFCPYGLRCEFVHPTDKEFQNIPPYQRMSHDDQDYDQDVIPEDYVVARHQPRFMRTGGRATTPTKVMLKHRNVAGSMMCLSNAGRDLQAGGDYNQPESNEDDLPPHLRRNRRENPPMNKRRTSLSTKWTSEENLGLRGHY
Description: potency of MEX-5 RNA-binding blockers – biochemical, C. elegans, fluorescence polarization, dose response (AID 1960). In general terms: Polarisation of emitted light reports the rotation of a fluorescent probe.

Assay [3] deals with T3, Histone-lysine N-methyltransferase NSD2 (Homo sapiens, UniProt O96028).
T3 sequence (O96028 whole entry): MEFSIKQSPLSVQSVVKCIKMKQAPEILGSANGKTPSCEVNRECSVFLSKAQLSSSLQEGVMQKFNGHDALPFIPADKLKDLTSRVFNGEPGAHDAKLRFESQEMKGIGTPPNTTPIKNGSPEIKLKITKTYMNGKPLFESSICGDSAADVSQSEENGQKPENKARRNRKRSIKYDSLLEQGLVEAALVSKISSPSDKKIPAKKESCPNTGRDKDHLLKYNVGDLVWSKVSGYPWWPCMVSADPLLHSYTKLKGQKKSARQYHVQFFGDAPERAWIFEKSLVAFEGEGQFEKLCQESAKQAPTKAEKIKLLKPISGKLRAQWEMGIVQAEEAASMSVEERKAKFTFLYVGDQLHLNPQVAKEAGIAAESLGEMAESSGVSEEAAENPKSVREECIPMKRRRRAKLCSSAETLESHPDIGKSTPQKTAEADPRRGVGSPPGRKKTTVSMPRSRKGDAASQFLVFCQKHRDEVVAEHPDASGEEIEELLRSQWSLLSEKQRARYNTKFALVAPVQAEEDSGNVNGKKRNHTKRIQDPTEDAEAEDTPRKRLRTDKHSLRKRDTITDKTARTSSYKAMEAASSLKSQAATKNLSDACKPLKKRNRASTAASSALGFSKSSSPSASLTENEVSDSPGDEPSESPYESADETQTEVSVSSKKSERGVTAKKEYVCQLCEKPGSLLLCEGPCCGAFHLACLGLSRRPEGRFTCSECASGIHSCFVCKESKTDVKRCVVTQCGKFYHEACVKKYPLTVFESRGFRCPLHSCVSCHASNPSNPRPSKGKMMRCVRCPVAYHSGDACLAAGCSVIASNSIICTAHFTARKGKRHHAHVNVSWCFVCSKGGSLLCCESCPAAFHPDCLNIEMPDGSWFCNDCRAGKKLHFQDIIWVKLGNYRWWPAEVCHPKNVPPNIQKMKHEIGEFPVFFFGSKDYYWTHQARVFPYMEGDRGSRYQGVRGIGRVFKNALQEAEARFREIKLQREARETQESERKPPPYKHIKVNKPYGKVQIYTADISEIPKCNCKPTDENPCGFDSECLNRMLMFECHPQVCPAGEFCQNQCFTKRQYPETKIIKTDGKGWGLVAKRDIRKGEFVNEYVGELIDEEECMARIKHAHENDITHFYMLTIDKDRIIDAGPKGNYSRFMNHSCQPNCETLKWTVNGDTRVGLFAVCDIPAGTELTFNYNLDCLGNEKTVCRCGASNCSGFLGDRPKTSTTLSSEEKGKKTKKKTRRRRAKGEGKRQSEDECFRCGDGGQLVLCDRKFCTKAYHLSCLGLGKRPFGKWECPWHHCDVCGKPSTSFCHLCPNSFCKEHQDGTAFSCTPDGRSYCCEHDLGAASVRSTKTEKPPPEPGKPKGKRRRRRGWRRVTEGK
It is filed as biochemical.

For a further assay, the target named is Protein Tat (Human immunodeficiency virus type 1 group M subtype B (isolate HXB2)(HIV-1), UniProt P04608). It is filed as functional.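 Further: tat binding to TAR RNA read out by fluorescence polarization.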
Chain of Protein Tat (P04608 whole entry): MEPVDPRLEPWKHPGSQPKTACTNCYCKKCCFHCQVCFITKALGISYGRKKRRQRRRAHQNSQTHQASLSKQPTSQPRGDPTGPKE
A short description of assay [4]: reduction of Shn3 3'UTR-driven luciferase in osteoblasts – cell-based, Clone20 osteoblasts, firefly luciferase, cherry-picked, dose response (AID 624132).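 Further: firefly luciferase luminescence from reporter carrying the Shn3 3'UTR in osteoblasts.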 It is filed as functional.
The nature of assay [5]: loss of viability in HepG2 cells – cell-based, CellTiter-Glo, cherry-picked, cytotoxicity control for Shn3 inhibitor project, dose response (AID 624134). It counts as functional. (In general: ATP-based viability assays read luminescence as a measure of living cells.)
Assay [6] in a line: Shn3 3'UTR reporter signal decrease – cell-based, Clone20 osteoblasts, firefly luciferase, cherry-pick, set 2, Schnurri-3 inhibitor project, dose response (AID 720490).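 Further: actives lower the luminescence signal as inhibitors.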 It counts as functional.
The target in assay [7] is 1-phosphatidylinositol 4,5-bisphosphate phosphodiesterase gamma-1 (Homo sapiens, UniProt P19174). Description: Counterscreen for inhibitors of phospholipase C isozymes (PLC-B3): Fluorescence-based biochemical high throughput dose response assay to identify inhibitors of phospholipase C isozymes (PLC-gamma1).
Chain of 1-phosphatidylinositol 4,5-bisphosphate phosphodiesterase gamma-1 (P19174 whole entry): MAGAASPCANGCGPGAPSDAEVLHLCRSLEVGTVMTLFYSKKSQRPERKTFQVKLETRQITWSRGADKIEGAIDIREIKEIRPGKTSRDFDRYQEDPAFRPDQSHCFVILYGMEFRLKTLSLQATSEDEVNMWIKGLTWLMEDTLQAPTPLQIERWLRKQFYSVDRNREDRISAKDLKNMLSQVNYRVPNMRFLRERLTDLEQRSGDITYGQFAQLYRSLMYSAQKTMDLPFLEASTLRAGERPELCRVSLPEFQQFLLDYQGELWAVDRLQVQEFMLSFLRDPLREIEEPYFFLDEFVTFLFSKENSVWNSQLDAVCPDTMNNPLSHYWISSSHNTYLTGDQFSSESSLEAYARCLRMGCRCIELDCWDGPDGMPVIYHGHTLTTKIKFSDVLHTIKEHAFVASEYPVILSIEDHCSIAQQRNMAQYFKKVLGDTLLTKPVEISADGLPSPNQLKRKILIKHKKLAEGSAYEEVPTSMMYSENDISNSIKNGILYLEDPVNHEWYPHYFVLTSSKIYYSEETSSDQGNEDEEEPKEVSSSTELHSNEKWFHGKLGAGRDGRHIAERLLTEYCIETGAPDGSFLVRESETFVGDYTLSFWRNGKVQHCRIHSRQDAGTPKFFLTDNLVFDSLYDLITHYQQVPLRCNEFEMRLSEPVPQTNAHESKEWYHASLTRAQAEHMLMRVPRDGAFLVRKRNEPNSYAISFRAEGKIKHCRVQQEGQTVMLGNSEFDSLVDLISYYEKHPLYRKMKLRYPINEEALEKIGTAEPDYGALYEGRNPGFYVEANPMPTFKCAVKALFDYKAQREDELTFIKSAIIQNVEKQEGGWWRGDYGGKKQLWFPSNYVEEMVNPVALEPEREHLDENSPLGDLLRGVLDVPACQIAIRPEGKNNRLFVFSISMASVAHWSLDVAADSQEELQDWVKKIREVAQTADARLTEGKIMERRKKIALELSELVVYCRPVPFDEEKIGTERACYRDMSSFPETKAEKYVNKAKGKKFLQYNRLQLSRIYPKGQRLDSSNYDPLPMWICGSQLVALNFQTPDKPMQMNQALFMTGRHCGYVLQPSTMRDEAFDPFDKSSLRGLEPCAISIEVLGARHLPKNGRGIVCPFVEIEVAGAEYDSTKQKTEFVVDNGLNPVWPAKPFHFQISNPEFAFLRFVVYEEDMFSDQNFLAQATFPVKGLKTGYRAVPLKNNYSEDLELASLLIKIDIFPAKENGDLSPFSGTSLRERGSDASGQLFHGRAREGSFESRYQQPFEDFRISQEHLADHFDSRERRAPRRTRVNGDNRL
For assay [8], the target named is 1-phosphatidylinositol 4,5-bisphosphate phosphodiesterase beta-3 (Homo sapiens, UniProt Q01970). Briefly: Fluorescence-based biochemical high throughput dose response assay to identify inhibitors of phospholipase C isozymes (PLC-B3).
Chain of 1-phosphatidylinositol 4,5-bisphosphate phosphodiesterase beta-3 (Q01970 whole entry): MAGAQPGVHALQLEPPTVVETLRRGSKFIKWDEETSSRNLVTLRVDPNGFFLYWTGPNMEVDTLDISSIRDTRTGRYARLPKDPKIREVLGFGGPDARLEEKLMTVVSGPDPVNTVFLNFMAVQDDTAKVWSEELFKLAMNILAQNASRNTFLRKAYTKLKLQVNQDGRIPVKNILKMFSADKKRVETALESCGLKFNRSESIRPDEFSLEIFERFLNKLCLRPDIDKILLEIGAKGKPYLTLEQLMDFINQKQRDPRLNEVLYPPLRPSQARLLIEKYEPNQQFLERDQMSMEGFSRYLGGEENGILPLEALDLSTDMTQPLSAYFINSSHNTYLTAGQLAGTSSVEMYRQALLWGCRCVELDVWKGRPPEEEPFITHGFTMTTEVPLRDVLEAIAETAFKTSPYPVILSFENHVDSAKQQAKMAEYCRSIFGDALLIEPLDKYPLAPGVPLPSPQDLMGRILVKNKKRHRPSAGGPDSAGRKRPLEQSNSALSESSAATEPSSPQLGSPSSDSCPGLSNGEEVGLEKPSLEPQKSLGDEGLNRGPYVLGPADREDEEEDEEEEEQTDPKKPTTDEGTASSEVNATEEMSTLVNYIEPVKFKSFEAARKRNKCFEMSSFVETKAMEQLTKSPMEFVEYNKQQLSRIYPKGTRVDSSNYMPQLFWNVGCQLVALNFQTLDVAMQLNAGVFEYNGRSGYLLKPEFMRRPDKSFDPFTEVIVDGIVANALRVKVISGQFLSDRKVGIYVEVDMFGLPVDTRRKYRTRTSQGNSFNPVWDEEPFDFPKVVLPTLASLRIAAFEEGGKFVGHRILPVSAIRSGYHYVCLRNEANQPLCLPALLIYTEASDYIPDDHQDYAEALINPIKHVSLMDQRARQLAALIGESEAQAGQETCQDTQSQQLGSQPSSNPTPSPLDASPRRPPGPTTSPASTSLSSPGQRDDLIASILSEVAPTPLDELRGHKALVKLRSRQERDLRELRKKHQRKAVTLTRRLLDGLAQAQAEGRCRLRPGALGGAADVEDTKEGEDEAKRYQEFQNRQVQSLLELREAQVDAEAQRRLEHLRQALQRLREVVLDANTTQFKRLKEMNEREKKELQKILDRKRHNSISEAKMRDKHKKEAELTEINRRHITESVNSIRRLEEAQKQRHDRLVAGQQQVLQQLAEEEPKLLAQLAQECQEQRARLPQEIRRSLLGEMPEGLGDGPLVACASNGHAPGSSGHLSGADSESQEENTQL
Assay [9] can be described thus: non-specific 3'UTR reporter inhibition in Clone20-Shn3RL – cell-based, Renilla luciferase, cherry-picked, counter-screen for Shn3 inhibitor project, dose response (AID 624133). It is filed as functional. Background: Counterscreens check selectivity or assay interference.
The test system of a further assay is HEK293. Description: viability loss in HEK293T cells – cell-based, ATP luminescence, cherry-pick samples, cytotoxicity control, dose response (AID 687005).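 Further: cells exposed to compound for 48 hours.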 Conditions: Homo sapiens. It counts as functional.
Assay [10] is described as follows: HEK293 Cytotoxicity Assay Measured in Cell-Based System Using Plate Reader - 7071-01_Inhibitor_Dose_CherryPick_Activity_Set2. It counts as functional.
The nature of assay [11]: P. falciparum Dd2 growth inhibitors, dose response, SYBR Green, cherry-picked samples (AID 1159567). It is filed as functional, cell-based.
The nature of assay [12]: toxicity to human hepatoma HepG2 cells – cell-based, cherry-picked samples, cytotoxicity control, dose response (AID 1159577). It is filed as functional.
Assay [13] in a line: growth inhibition of yeast DHODH-expressing 3D7 parasites – SYBR Green, dry powder samples, dose response (AID 1159570).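 Further: parasite growth measured after 72 hours of compound exposure.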 It counts as functional, cell-based.
A short description of assay [14]: toxicity to human HepG2 hepatoma cells – cell-based, plate reader, dry powder samples, cytotoxicity control, dose response (AID 1159569).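 Further: inhibitor potency with signal falling toward the positive control level.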 It is filed as functional.
Assay [15] is described as follows: Dd2 malaria parasite growth inhibition potency – SYBR Green, dry powder samples, dose response (AID 1159566).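 Further: potency for growth inhibition with lower SYBR green DNA signal.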 It is filed as functional, cell-based.
Assay [16] can be described thus: growth inhibition of PfATP4-mutant resistant parasites – NITD609-resistant line, SYBR Green, dry powder, dose response (AID 1159571).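 Further: parasites synchronized at ring stage by sorbitol before testing.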 It is filed as functional, cell-based.
Assay [17] can be described thus: HPDE-C7 pancreatic duct cell viability loss – fluorescence, HTS (AID 430). As to conditions: Homo sapiens. It is filed as functional, cell-based.
A further assay has as its target Large T antigen (Simian virus 40, UniProt P03070). It is filed as functional, Betapolyomavirus macacae.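 Further: Confirmatory-stage PubChem screen for compounds that inhibit SV40 T antigen.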
A short description of assay [18]: viability loss of HPDE-C7K cells – cell-based, fluorescence, HTS, primary screen (AID 431). It is filed as functional. Conditions: Homo sapiens.
The nature of assay [19]: CellTiter-Glo luminescence survival assay, SW480 colon tumor line, concentration-response curve, half-maximal inhibitory concentration (AID 1117338). It counts as functional.
Assay [20] can be described thus: RKO cell viability reduction, dose response, CellTiter-Glo luminescence (AID 1117322). It is filed as functional.
The nature of assay [21]: cytotoxicity toward HCT116 cells – cell-based, CellTiter-Glo luminescence, IC50, dose response (AID 1117332). It counts as functional. Conditions: HCT-116.
Assay [22] can be described thus: SNU-C1 cell viability reduction, dose response, CellTiter-Glo luminescence (AID 1117323). It counts as functional, cell-based.
Assay [23] is described as follows: cytotoxicity toward Colo320 cells – cell-based, CellTiter-Glo luminescence, IC50, dose response (AID 1117334). It counts as functional. As to conditions: COLO 320.
Assay [24] in a line: Reduced DLD-1 viability, concentration-response, CellTiter-Glo luminescence (AID 1117352). It counts as functional.
The nature of assay [25]: HCT116 cell viability decrease, GSK3B pretreatment – CellTiter-Glo, IC50, dose response (AID 1117339). It is filed as functional. As to conditions: HCT-116.
Assay [26] can be described thus: Potency on glucagon-like peptide 1 release, dose-response in NCI-H716 cell line, half maximal inhibitory concentration (AID 1117344). It is filed as functional, cell-based.

SMILES strings stand for the structures. The source made the active and inactive calls. Bounds are passed on as bounds.

Chain of Large T antigen (P03070 whole entry): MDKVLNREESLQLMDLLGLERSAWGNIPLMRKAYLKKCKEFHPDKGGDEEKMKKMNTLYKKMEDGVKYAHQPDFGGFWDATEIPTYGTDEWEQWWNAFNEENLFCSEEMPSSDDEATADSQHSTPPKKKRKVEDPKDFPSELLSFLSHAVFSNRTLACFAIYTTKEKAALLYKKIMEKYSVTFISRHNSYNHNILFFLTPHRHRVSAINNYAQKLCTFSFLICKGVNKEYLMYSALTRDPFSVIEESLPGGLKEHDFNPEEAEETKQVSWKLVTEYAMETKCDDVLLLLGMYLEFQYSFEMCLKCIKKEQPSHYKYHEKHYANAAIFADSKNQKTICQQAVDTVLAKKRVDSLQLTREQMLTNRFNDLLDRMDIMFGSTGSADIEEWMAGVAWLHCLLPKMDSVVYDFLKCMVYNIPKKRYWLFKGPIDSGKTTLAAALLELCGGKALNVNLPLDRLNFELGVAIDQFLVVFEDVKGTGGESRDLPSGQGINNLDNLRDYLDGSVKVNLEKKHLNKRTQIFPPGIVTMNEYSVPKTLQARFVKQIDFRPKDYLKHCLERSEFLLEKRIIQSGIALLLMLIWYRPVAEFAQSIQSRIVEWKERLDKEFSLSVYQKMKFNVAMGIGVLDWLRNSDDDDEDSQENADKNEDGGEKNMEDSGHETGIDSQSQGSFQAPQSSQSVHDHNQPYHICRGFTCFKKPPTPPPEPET

In the case of `O=C(c1coc(=O)c(Br)c1)N1CCCc2ccccc21`, the EC50 in [1] and in [2] was > 300 µM (not active) in each case. Besides, the AC50 – broadly, the midpoint of the concentration-response curve, whichever way the signal moves – in assay [3] was 12.2 µM (active). Also, the IC50 (commonly the point on the concentration scale where inhibition reaches its midpoint) on Protein Tat was 4.84 µM (inconclusive).

`COc1ccc(CNC(=O)C(C)n2ccc3cc(S(=O)(=O)N4CCCCCC4)ccc32)cc1` (configuration not stated): the figures for the AC50 in [4], in assay [5] and in assay [6] were 0.518 µM (active), > 70 µM (inactive) and 17.4 µM (active), respectively.

In the case of `COc1ccc(CS(=O)(=O)c2nnc[nH]2)cc1`, the figures for the IC50 in [7] and in assay [8] were 15.5 µM (inactive) and > 123 µM (inactive), respectively.

As for `CCOC(=O)c1oc2ccc(S(=O)(=O)n3nc(-c4ccc(OC)cc4)cc3N)cc2c1C`, the AC50 in [4] was 1.99 µM (active); in assay [5] it was 60 µM (active); in assay [9], 30 µM (active); in assay [6], 4.68 µM (active).

For `COc1cc(NS(=O)(=O)c2ccc(NC(=O)CN3C(=O)c4ccccc4C3=O)cc2)nc(OC)n1`, the IC50 in assay [7] and in [8] was > 122 µM (inactive) throughout.

`Cc1cccc(-c2ccc([C@@H]3[C@@H](CO)N4CCCCN(S(=O)(=O)c5ccccc5C)C[C@@H]34)cc2)c1`: the AC50 (in the assay on HEK293; in [10]) was 19.3 µM (active) throughout.

With `COc1cccc(-c2ccc([C@H]3[C@H](C#N)N(C(=O)Cc4ccncc4)[C@H]3CO)cc2)c1`, the AC50 was 4.28 µM (active) in assay [11] and 33.8 µM (active) in assay [12].

Take `COc1cc(CN2C[C@@H]3N[C@H](C2)[C@H]3c2ccc(-c3ccncc3)cc2)cc(OC)c1`: the AC50 in assay [13] is 1.33 µM (active); in assay [14] it was 19.6 µM (active); in [11], 1.63 µM (active); in assay [15] it was 1.16 µM (active); in assay [16], 0.886 µM (active).

For the compound `N#C[C@@H]1[C@H](c2ccc(C#CC3CCCCC3)cc2)[C@@H](CO)N1C(=O)Cc1ccccn1`, the AC50 was 3.79 µM (active) in [11] and > 39 µM (inactive) in assay [12].

Take `C=C(CC)C(=O)c1ccc(OCC(=O)O)c(Cl)c1Cl` [ETHACRYNIC ACID]: the EC50 (as a rule, the concentration needed to bring the measured effect to its halfway point) in assay [17] is 10.4 µM (active); in assay [18] it was 11.3 µM (active). The IC50 was > 100 µM (active) on Large T antigen; > 6.67 µM (inactive) in assay [19]; > 6.67 µM (inactive) in assay [20]; > 20 µM (inactive) in [21]; > 20 µM (inactive) in assay [22]; > 20 µM (inactive) in [23]. For the same compound, the IC50 in assay [24] was 11.9 µM (inactive); in [25], 12.2 µM (inactive).

With `Cc1ccc(C(=O)Nc2ccc(S(=O)(=O)O)c3cc(S(=O)(=O)O)cc(S(=O)(=O)O)c23)cc1NC(=O)c1cccc(NC(=O)Nc2cccc(C(=O)Nc3cc(C(=O)Nc4ccc(S(=O)(=O)O)c5cc(S(=O)(=O)O)cc(S(=O)(=O)O)c45)ccc3C)c2)c1` [SURAMIN], in assay [26], the IC50 was > 40 µM (inactive).
